The target in assay [1] is WT S protein (Severe acute respiratory syndrome coronavirus 2, UniProt P0DTC2). The assay is described as follows: biochemical. The assay is classed as binding.
Assay [2] has as its target WT RBD (Severe acute respiratory syndrome coronavirus 2, UniProt P0DTC2). The assay is classed as binding.

pIC50: −log10 of the molar value. Where two headings read alike, the source gives them in different places.

This is an account of results in publication PMC10125213 (Journal of Molecular Biology, 2023).

On to `N[C@@H](CCC(=O)N[C@@H](CS)C(=O)NCC(=O)O)C(=O)O` [GSH, reduced glutathione], for which the “effects on WT S protein” value in assay [1] was “did not exhibit any effects”.
`CC(=O)N[C@@H](CS)C(=O)O` [NAC, N-acetylcysteine]: the “effects on WT S protein” value in assay [1] (37 °C 60 min) is reported as “did not exhibit any effects”.
With `O=C(O)CCP(CCC(=O)O)CCC(=O)O` [TCEP, tris-(2-carboxyethyl)phosphine], the “effect on WT RBD” value in assay [2] was “marginal effect”.
What is called pIC50 is −log10 of the IC50, conventionally taken in molar units. Higher therefore signals a low IC50. Consider `NCCCNCCS` [WR1065], for which the pIC50 in assay [1] (IC50, 37 °C 60 min) is 2.00 to 3.00.
